# From PubChem BioAssay (NCI)
#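 Here, GI50 denotes the concentration required for 50% inhibition of growth. TGI: total growth inhibition.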
# Columns and labels:
# Assay in all cases: growth of human tumour cells (NCI), 384-well format
# [1] = tested on: 786-0 renal
# [2] = tested on: A498 renal
# [3] = tested on: A549 NSCLC
# [4] = tested on: ACHN renal
# [5] = tested on: BT-549 breast
# [6] = tested on: CAKI-1 renal
# [7] = tested on: CCRF-CEM leukemia
# [8] = tested on: COLO 205 colon
# [9] = tested on: DU-145 prostate
# [10] = tested on: EKVX NSCLC
# [11] = tested on: HCT-15 colon
# [12] = tested on: HL-60(TB) leukemia
# [13] = tested on: HOP-62 NSCLC
# [14] = tested on: HOP-92 NSCLC
# [15] = tested on: HS 578T breast
# [16] = tested on: HT29 colon
# [17] = tested on: IGROV1 ovarian
# [18] = tested on: KM12 colon
# [19] = tested on: M14 melanoma
# [20] = tested on: MALME-3M melanoma
# [21] = tested on: MCF7 breast
# [22] = tested on: MDA-MB-231 breast
# [23] = tested on: MDA-MB-435 melanoma
# [24] = tested on: MDA-MB-468 breast
# [25] = tested on: MOLT-4 leukemia
# [26] = tested on: NCI-H226 lung
# [27] = tested on: NCI-H23 lung
# [28] = tested on: NCI-H322M lung
# [29] = tested on: NCI-H460 NSCLC
# [30] = tested on: NCI-H522 lung
# [31] = tested on: NCI/ADR-RES ovarian
# [32] = tested on: OVCAR-3 ovarian
# [33] = tested on: OVCAR-4 ovarian
# [34] = tested on: OVCAR-5 ovarian
# [35] = tested on: OVCAR-8 ovarian
# [36] = tested on: PC-3 prostate
# [37] = tested on: RPMI-8226 leukemia
# [38] = tested on: RXF 393 renal
# [39] = tested on: SF-268 CNS
# [40] = tested on: SF-295 CNS
# [41] = tested on: SF-539 CNS
# [42] = tested on: SK-MEL-2 melanoma
# [43] = tested on: SK-MEL-28 melanoma
# [44] = tested on: SK-MEL-5 melanoma
# [45] = tested on: SK-OV-3 ovarian
# [46] = tested on: SN12C renal
# [47] = tested on: SNB-19 CNS
# [48] = tested on: SNB-75 CNS
# [49] = tested on: SR leukemia
# [50] = tested on: SW-620 colon
# [51] = tested on: T-47D breast
# [52] = tested on: TK-10 renal
# [53] = tested on: U251 glioblastoma
# [54] = tested on: UACC-257 melanoma
# [55] = tested on: UACC-62 melanoma
smiles,measurement,setting,value
COc1ccc(-c2ccc(/C=C/C(=O)NO)cc2)cc1,GI50,[1],1140 nM
same,TGI,[1],3650 nM
same,GI50,[2],1860 nM
same,TGI,[2],11200 nM
same,GI50,[3],431 nM
same,TGI,[3],11600 nM
same,GI50,[4],2100 nM
same,TGI,[4],4230 nM
same,GI50,[5],624 nM
same,TGI,[5],3510 nM
same,GI50,[6],1750 nM
same,TGI,[6],5590 nM
same,GI50,[7],128 nM
same,TGI,[7],258 nM
same,GI50,[8],3310 nM
same,TGI,[8],6560 nM
same,GI50,[9],1300 nM
same,TGI,[9],3540 nM
same,GI50,[10],2280 nM
same,TGI,[10],11400 nM
same,GI50,[11],332 nM
same,TGI,[11],2730 nM
same,GI50,[12],255 nM
same,TGI,[12],524 nM
same,GI50,[13],760 nM
same,TGI,[13],2580 nM
same,GI50,[14],986 nM
same,TGI,[14],4190 nM
same,GI50,[15],2850 nM
same,TGI,[15],9630 nM
same,GI50,[16],2720 nM
same,TGI,[16],16300 nM
same,GI50,[17],1680 nM
same,TGI,[17],5020 nM
same,GI50,[18],1510 nM
same,TGI,[18],16000 nM
same,GI50,[19],1450 nM
same,TGI,[19],3280 nM
same,GI50,[20],1180 nM
same,TGI,[20],3920 nM
same,GI50,[21],1410 nM
same,TGI,[21],4280 nM
same,GI50,[22],391 nM
same,TGI,[22],1730 nM
same,GI50,[23],4260 nM
same,TGI,[23],64700 nM
same,GI50,[24],292 nM
same,TGI,[24],578 nM
same,GI50,[25],166 nM
same,TGI,[25],329 nM
same,GI50,[26],457 nM
same,TGI,[26],2410 nM
same,GI50,[27],728 nM
same,TGI,[27],2340 nM
same,GI50,[28],3100 nM
same,TGI,[28],33300 nM
same,GI50,[29],626 nM
same,TGI,[29],2500 nM
same,GI50,[30],373 nM
same,TGI,[30],1480 nM
same,GI50,[31],527 nM
same,TGI,[31],1620 nM
same,GI50,[32],237 nM
same,TGI,[32],531 nM
same,GI50,[33],284 nM
same,TGI,[33],12200 nM
same,GI50,[34],1940 nM
same,TGI,[34],5930 nM
same,GI50,[35],562 nM
same,TGI,[35],2120 nM
same,GI50,[36],818 nM
same,TGI,[36],9740 nM
same,GI50,[37],262 nM
same,TGI,[37],548 nM
same,GI50,[38],298 nM
same,TGI,[38],1130 nM
same,GI50,[39],967 nM
same,TGI,[39],2870 nM
same,GI50,[40],2840 nM
same,TGI,[40],14200 nM
same,GI50,[41],525 nM
same,TGI,[41],2200 nM
same,GI50,[42],472 nM
same,TGI,[42],1140 nM
same,GI50,[43],2600 nM
same,TGI,[43],7200 nM
same,GI50,[44],421 nM
same,TGI,[44],1580 nM
same,GI50,[45],349 nM
same,TGI,[45],1560 nM
same,GI50,[46],1290 nM
same,TGI,[46],3810 nM
same,GI50,[47],2520 nM
same,TGI,[47],11900 nM
same,GI50,[48],466 nM
same,TGI,[48],4640 nM
same,GI50,[49],195 nM
same,TGI,[49],368 nM
same,GI50,[50],1820 nM
same,TGI,[50],10200 nM
same,GI50,[51],1400 nM
same,TGI,[51],5260 nM
same,GI50,[52],1820 nM
same,TGI,[52],7230 nM
same,GI50,[53],1190 nM
same,TGI,[53],2850 nM
same,GI50,[54],1380 nM
same,TGI,[54],8800 nM
same,GI50,[55],1930 nM
same,TGI,[55],4350 nM
